Patent US8524722B2, “Substituted tricyclic compounds and methods of use thereof” (Bayer Intellectual Property GmbH, priority 2007, dated 2013)

Molecular target: Epidermal Growth Factor Receptor (EGFR) (Homo sapiens (Human), UniProt P00533)
Experiment: EGFR HTRF kinase assay
Format: biochemical
Conditions: not given
Description: EGFR inhibitory activity of compounds of the present invention is quantified employing the EGFR HTRF assay as described in the following paragraphs:
Epidermal Growth Factor Receptor (EGFR), affinity-purified from human carcinoma A431 cells (Sigma-Aldrich, # E3641), is used as kinase. As substrate for the kinase reaction, the biotinylated peptide biotin-Ahx-[…] (C-terminus in amide form) is used (available from, e.g., Biosynthan GmbH, Berlin-Buch, Germany).
EGFR is incubated for 30 min at 22° C. in the presence of different concentrations of test compounds in 5 μl assay buffer [50 mM Hepes/NaOH pH 7.0, 1 mM MgCl2, 5 mM MnCl2, 1.0 mM dithiothreitol, 0.5 mM sodium orthovanadate, 10 μM adenosine triphosphate (ATP), 1 μM substrate, 0.005% (v/v) Tween-20, 1% (v/v) dimethylsulfoxide]. The concentration of EGFR is adjusted depending on the activity of the enzyme lot and is chosen appropriate to have the assay in the linear range; typical concentrations are in the range of 20 U/ml. The reaction is stopped by the addition of 5 μl of a solution of HTRF detection reagents [0.1 μM streptavidine-XLent and 1 nM PT66-Eu-Chelate, an Europium-chelate labelled anti-phosphotyrosine antibody (Perkin Elmer)] in an aqueous EDTA solution [80 mM EDTA, 0.2% (w/v) bovine serum albumin in 50 mM HEPES/NaOH pH 7.0].
The resulting mixture is incubated for 1 h at 22° C. to allow the binding of the biotinylated phosphorylated peptide to the streptavidine-XLent and the PT66-Eu-Chelate. Subsequently, the amount of phosphorylated substrate is evaluated by measurement of the resonance energy transfer from the PT66-Eu-Chelate to the streptavidine-XLent. Therefore, the fluorescence emissions at 620 nm and 665 nm after excitation at 350 nm are measured in an HTRF reader, e.g. a Rubystar (BMG Labtechnologies, Offenburg, Germany) or a Viewlux (Perkin-Elmer). The ratio of the emissions at 665 nm and at […] is taken as the measure for the amount of phosphorylated substrate.

Epidermal Growth Factor Receptor (EGFR), sequence (P00533 25-1210): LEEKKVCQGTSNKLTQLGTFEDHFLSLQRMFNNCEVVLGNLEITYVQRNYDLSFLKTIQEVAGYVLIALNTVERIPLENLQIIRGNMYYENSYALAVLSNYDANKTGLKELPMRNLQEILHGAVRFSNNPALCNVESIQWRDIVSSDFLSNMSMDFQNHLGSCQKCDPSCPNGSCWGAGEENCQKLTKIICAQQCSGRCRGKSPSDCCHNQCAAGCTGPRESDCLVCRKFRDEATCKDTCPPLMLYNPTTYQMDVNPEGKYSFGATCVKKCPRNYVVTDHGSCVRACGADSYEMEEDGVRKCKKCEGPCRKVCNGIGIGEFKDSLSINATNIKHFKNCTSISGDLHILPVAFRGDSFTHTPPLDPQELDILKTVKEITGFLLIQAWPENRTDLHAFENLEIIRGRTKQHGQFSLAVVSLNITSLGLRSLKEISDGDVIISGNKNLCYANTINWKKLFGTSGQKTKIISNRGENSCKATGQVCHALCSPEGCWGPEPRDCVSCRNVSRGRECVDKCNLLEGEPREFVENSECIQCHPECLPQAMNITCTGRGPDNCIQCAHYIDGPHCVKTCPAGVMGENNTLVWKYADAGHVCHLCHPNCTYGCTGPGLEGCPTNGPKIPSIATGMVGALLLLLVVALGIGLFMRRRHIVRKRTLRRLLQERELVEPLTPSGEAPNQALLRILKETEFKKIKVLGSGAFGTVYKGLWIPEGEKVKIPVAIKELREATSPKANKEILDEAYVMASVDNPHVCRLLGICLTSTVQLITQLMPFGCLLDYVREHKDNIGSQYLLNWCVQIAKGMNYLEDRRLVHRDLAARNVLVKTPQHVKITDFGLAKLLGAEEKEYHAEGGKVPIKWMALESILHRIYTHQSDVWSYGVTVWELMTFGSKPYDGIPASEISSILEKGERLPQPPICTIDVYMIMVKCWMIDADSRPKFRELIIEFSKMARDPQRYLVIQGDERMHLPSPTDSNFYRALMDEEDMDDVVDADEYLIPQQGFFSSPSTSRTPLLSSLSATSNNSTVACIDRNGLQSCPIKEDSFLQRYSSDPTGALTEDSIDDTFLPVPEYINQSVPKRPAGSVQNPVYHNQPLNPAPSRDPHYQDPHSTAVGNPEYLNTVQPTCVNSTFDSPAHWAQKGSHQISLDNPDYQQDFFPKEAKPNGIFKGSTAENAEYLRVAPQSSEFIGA

| Structure (SMILES) | IC50 [nM] |
| --- | --- |
| CC(C)N(C)C/C=C/C(=O)N1CCc2c(sc3ncnc(Nc4cc(O)cc(Cl)c4)c23)C1 [Example 123, 3-Chloro-5-[(7-{(2E)-4-[methyl(1-methylethyl)amino]but-2-enoyl}-5,6,7,8-tetrahydropyrido[4′,3′:4,5]thieno[2,3-d]pyrimidin-4-yl)amino]phenol] | 1 |

Same assay, conditions: EGFR affinity-purified from A431 cells, 10 μM ATP, 30 min at 22° C.

| Structure (SMILES) | IC50 [nM] |
| --- | --- |
| O=C(/C=C/CN1CCCOCC1)N1CCc2c(sc3ncnc(Nc4ccc(F)c(Cl)c4)c23)C1 [Example 5, N-(3-Chloro-4-fluorophenyl)-7-[(2E)-4-(1,4-oxazepan-4-yl)but-2-enoyl]-5,6,7,8-tetrahydropyrido[4′,3′:4,5]thieno[2,3-d]pyrimidin-4-amine] | 1 |
| O=C(/C=C/CN1C2CCC1CC2)N1CCc2c(sc3ncnc(Nc4ccc(F)c(Cl)c4)c23)C1 [Example 10, 7-[(2E)-4-(7-Azabicyclo[2.2.1]hept-7-yl)but-2-enoyl]-N-(3-chloro-4-fluorophenyl)-5,6,7,8-tetrahydropyrido[4′,3′:4,5]thieno[2,3-d]pyrimidin-4-amine] | 1.1 |
| CC(C)(CN1CCOCC1)NC/C=C/C(=O)N1CCc2c(sc3ncnc(Nc4ccc(F)c(Cl)c4)c23)C1 [Example 12, N-(3-Chloro-4-fluorophenyl)-7-{(2E)-4-[(1,1-dimethyl-2-morpholin-4-ylethyl)amino]but-2-enoyl}-5,6,7,8-tetrahydropyrido[4′,3′:4,5]thieno[2,3-d]pyrimidin-4-amine] | 1 |
| O=C(/C=C/[C@@H]1CCCN1)N1CCc2c(sc3ncnc(Nc4ccc(F)c(Cl)c4)c23)C1 [Example 13, N-(3-Chloro-4-fluorophenyl)-7-{(2E)-3-[(2S)-pyrrolidin-2-yl]prop-2-enoyl}-5,6,7,8-tetrahydropyrido[4′,3′:4,5]thieno[2,3-d]pyrimidin-4-amine] | 2 |
| CN1CCC[C@H]1/C=C/C(=O)N1CCc2c(sc3ncnc(Nc4ccc(F)c(Cl)c4)c23)C1 [Example 14, N-(3-Chloro-4-fluorophenyl)-7-{(2E)-3-[(2S)-1-methylpyrrolidin-2-yl]prop-2-enoyl}-5,6,7,8-tetrahydropyrido[4′,3′:4,5]thieno[2,3-d]pyrimidin-4-amine] | 1 |
| C[C@@H](Nc1ncnc2sc3c(c12)CCN(C(=O)/C=C/CN(C)C)C3)c1ccccc1 [Example 23, 7-[(2E)-4-(Dimethylamino)but-2-enoyl]-N-[(1R)-1-phenylethyl]-5,6,7,8-tetrahydropyrido[4′,3′:4,5]thieno[2,3-d]pyrimidin-4-amine] | 4.6 |
| COCCN(C/C=C/C(=O)N1CCc2c(sc3ncnc(Nc4ccc(F)c(Cl)c4)c23)C1)CCOC [Example 31] | 1 |
| CN(C)C(=O)N1CCN(C/C=C/C(=O)N2CCc3c(sc4ncnc(Nc5ccc(F)c(Cl)c5)c34)C2)CC1 [Example 70] | 1 |
| CN(C)C/C=C/C(=O)N1Cc2sc3ncnc(Nc4ccc(F)c(Cl)c4)c3c2C1 [Example 81, N-(3-Chloro-4-fluorophenyl)-6-[(2E)-4-(dimethylamino)but-2-enoyl]-6,7-dihydro-5H-pyrrolo[3′,4′:4,5]thieno[2,3-d]pyrimidin-4-amine] | 12 |
| CN(C)C/C=C/C(=O)N1Cc2sc3ncnc(Nc4ccc(OCc5cccc(F)c5)c(Cl)c4)c3c2C1 [Example 86, N-{3-Chloro-4-[(3-fluorobenzyl)oxy]phenyl}-6-[(2E)-4-(dimethylamino)but-2-enoyl]-6,7-dihydro-5H-pyrrolo[3′,4′:4,5]thieno[2,3-d]pyrimidin-4-amine] | 5 |
| CN(C)C/C=C/C(=O)N1Cc2sc3ncnc(Nc4ccc(OCc5ccccn5)c(Cl)c4)c3c2C1 [Example 87, N-[3-Chloro-4-(pyridin-2-ylmethoxy)phenyl]-6-[(2E)-4-(dimethylamino)but-2-enoyl]-6,7-dihydro-5H-pyrrolo[3′,4′:4,5]thieno[2,3-d]pyrimidin-4-amine] | 19 |
| CC(C)N(C)C/C=C/C(=O)N1CCc2c(oc3ncnc(Nc4ccc(F)c(Cl)c4)c23)C1 [Example 90, N-(3-Chloro-4-fluorophenyl)-7-{(2E)-4-[methyl(1-methylethyl)amino]but-2-enoyl}-5,6,7,8-tetrahydropyrido[4′,3′:4,5]furo[2,3-d]pyrimidin-4-amine] | 1 |
| CN(C)C/C=C/C(=O)N1CCc2c(sc3ncc(C#N)c(Nc4ccc(F)c(Cl)c4)c23)C1 [Example 95, 4-[(3-Chloro-4-fluorophenyl)amino]-7-[(2E)-4-(dimethylamino)but-2-enoyl]-5,6,7,8-tetrahydrothieno[2,3-b:5,4-c′]dipyridine-3-carbonitrile] | 10 |
| CN(C/C=C/C(=O)N1CCc2c(sc3ncnc(Nc4cc(O)c(Cl)c(Cl)c4)c23)C1)C(C)(C)C [Example 134, 5-[(7-{(2E)-4-[tert-Butyl(methyl)amino]but-2-enoyl}-5,6,7,8-tetrahydropyrido[4′,3′:4,5]thieno[2,3-d]pyrimidin-4-yl)amino]-2,3-dichlorophenol] | 1 |
| CC(C)N(C)C/C=C/C(=O)N1CCc2sc3ncnc(Nc4ccc(Cl)c(Cl)c4)c3c2C1 [Example 139, N-(3,4-Dichlorophenyl)-6-{(2E)-4-[methyl(1-methylethyl)amino]but-2-enoyl}-5,6,7,8-tetrahydropyrido[3′,4′:4,5]thieno[2,3-d]pyrimidin-4-amine] | 9.2 |
| O=C(/C=C/CN1CCCOCC1)N1CCCc2c(sc3ncnc(Nc4ccc(Cl)c(Cl)c4)c23)C1 [Example 143, N-(3,4-Dichlorophenyl)-8-[(2E)-4-(1,4-oxazepan-4-yl)but-2-enoyl]-6,7,8,9-tetrahydro-5H-pyrimido[5′,4′:4,5]thieno[2,3-c]azepin-4-amine] | 1 |
| N#Cc1cnc2sc3c(c2c1Nc1ccc(Cl)c(Cl)c1)CCN(C(=O)/C=C/CN1CCCOCC1)C3 [Example 148, 4-[(3,4-Dichlorophenyl)amino]-7-[(2E)-4-(1,4-oxazepan-4-yl)but-2-enoyl]-5,6,7,8-tetrahydrothieno[2,3-b:5,4-c′]dipyridine-3-carbonitrile] | 4.3 |
| CC(C)N(C)C/C=C/C(=O)N1CCc2c(sc3ncc(C#N)c(Nc4ccc5c(cnn5Cc5cccc(F)c5)c4)c23)C1 [Example 151, 4-{[1-(3-Fluorobenzyl)-1H-indazol-5-yl]amino}-7-{(2E)-4-[methyl(1-methylethyl)amino]but-2-enoyl}-5,6,7,8-tetrahydrothieno[2,3-b:5,4-c′]dipyridine-3-carbonitrile] | 6.4 |
